Laboratory results from patent publication US12084467B2, “Therapeutic compounds for HIV virus infection” (Gilead Sciences, Inc., priority 2021, dated 2024).
Converted amounts (≈) assume the structure as drawn.

Assays:
[1] = Kinetic solubility analysis (CLND: total chemiluminescent nitrogen determination); settings: 1.0% DMSO, 24-hour incubation at ambient temperature, maximum theoretical concentration 100 μM; for pH 2 solubility: 0.1N HCl; for pH 7 solubility: 1×PBS buffer (pH 7.4)
[2] = Solubility in simulated intestinal fluids (FaSSIF / FeSSIF); settings: 25 °C, thermodynamic from solid
[3] = fasted state simulated intestinal fluid (FaSSIF), fassif
[4] = fed state simulated intestinal fluid (FeSSIF), fessif

Row | Compound | pH 2 solubility [1] | pH 7 solubility [1] | solubility [2, 3] [µg/mL] | solubility [2, 4] [µg/mL] | solubility ([2]; fassif) [µg/mL]
1 | CC(C)(C#Cc1ccc(-c2ccc(Cl)c3c(N(C(=O)N4CCOC[C@H]4C(=O)OCOP(=O)(O)O)S(C)(=O)=O)nn(CC(F)(F)F)c23)c([C@H](Cc2cc(F)cc(F)c2)NC(=O)Cn2nc(C(F)(F)F)c3c2C(F)(F)[C@@H]2C[C@H]32)n1)S(C)(=O)=O [Compound 23, (phosphonooxy)methyl (S)-4-((4-chloro-7-(2-((S)-1-(2-((3bS,4aR)-5,5-difluoro-3-(trifluoromethyl)-3b,4,4a,5-tetrahydro-1H-cyclopropa[3,4]cyclopenta[1,2-c]pyrazol-1-yl)acetamido)-2-(3,5-difluorophenyl)ethyl)-6-(3-methyl-3-(methylsulfonyl)but-1-yn-1-yl)pyridin-3-yl)-1-(2,2,2-trifluoroethyl)-1H-indazol-3-yl)(methylsulfonyl)carbamoyl)morpholine-3-carboxylate] | 2 μM | 17 μM | 377 (≈ 305 µM) | 139 (≈ 113 µM) | 
2 | CC(C)(C#Cc1ccc(-c2ccc(Cl)c3c(N(C(=O)N4CCC[C@H]4CN(CC(=O)O)C(=O)OCOP(=O)(O)O)S(C)(=O)=O)nn(CC(F)(F)F)c23)c([C@H](Cc2cc(F)cc(F)c2)NC(=O)Cn2nc(C(F)(F)F)c3c2C(F)(F)[C@@H]2C[C@H]32)n1)S(C)(=O)=O [Compound 33, N—(((S)-1-((4-chloro-7-(2-((S)-1-(2-((3bS,4aR)-5,5-difluoro-3-(trifluoromethyl)-3b,4,4a,5-tetrahydro-1H-cyclopropa[3,4]cyclopenta[1,2-c]pyrazol-1-yl)acetamido)-2-(3,5-difluorophenyl)ethyl)-6-(3-methyl-3-(methylsulfonyl)but-1-yn-1-yl)pyridin-3-yl)-1-(2,2,2-trifluoroethyl)-1H-indazol-3-yl)(methylsulfonyl)carbamoyl)pyrrolidin-2-yl)methyl)-N-(((phosphonooxy)methoxy)carbonyl)glycine] | 1 μM | 100 μM |  |  | 5020 (≈ 3840 µM)
3 | CC(C)(C#Cc1ccc(-c2ccc(Cl)c3c(N(C(=O)N4CCC[C@H]4CNC(=O)OCOP(=O)(O)O)S(C)(=O)=O)nn(CC(F)(F)F)c23)c([C@H](Cc2cc(F)cc(F)c2)NC(=O)Cn2nc(C(F)(F)F)c3c2C(F)(F)[C@@H]2C[C@H]32)n1)S(C)(=O)=O [Compound 32, (phosphonooxy)methyl (((S)-1-((4-chloro-7-(2-((S)-1-(2-((3bS,4aR)-5,5-difluoro-3-(trifluoromethyl)-3b,4,4a,5-tetrahydro-1H-cyclopropa[3,4]cyclopenta[1,2-c]pyrazol-1-yl)acetamido)-2-(3,5-difluorophenyl)ethyl)-6-(3-methyl-3-(methylsulfonyl)but-1-yn-1-yl)pyridin-3-yl)-1-(2,2,2-trifluoroethyl)-1H-indazol-3-yl)(methylsulfonyl)carbamoyl)pyrrolidin-2-yl)methyl)carbamate] | 1 μM | 100 μM | 478 (≈ 383 µM) | 306 (≈ 245 µM) | 
4 | CC(C)(C#Cc1ccc(-c2ccc(Cl)c3c(N(C(=O)[C@@H]4C[C@H]4C(=O)O)S(C)(=O)=O)nn(CC(F)(F)F)c23)c([C@H](Cc2cc(F)cc(F)c2)NC(=O)Cn2nc(C(F)(F)F)c3c2C(F)(F)[C@@H]2C[C@H]32)n1)S(C)(=O)=O [Compound 16, (1R,2R)-2-((4-chloro-7-(2-((S)-1-(2-((3bS,4aR)-5,5-difluoro-3-(trifluoromethyl)-3b,4,4a,5-tetrahydro-1H-cyclopropa[3,4]cyclopenta[1,2-c]pyrazol-1-yl)acetamido)-2-(3,5-difluorophenyl)ethyl)-6-(3-methyl-3-(methylsulfonyl)but-1-yn-1-yl)pyridin-3-yl)-1-(2,2,2-trifluoroethyl)-1H-indazol-3-yl)(methylsulfonyl)carbamoyl)cyclopropane-1-carboxylic acid] | 1 μM | 44 μM | 21 (≈ 19.4 µM) | 6 (≈ 5.55 µM) | 
5 | CC(C)(C#Cc1ccc(-c2ccc(Cl)c3c(N(C(=O)N4CCC[C@H]4CN(CCC(=O)O)C(=O)OCOP(=O)(O)O)S(C)(=O)=O)nn(CC(F)(F)F)c23)c([C@H](Cc2cc(F)cc(F)c2)NC(=O)Cn2nc(C(F)(F)F)c3c2C(F)(F)[C@@H]2C[C@H]32)n1)S(C)(=O)=O [Compound 34, 3-((((S)-1-((4-chloro-7-(2-((S)-1-(2-((3bS,4aR)-5,5-difluoro-3-(trifluoromethyl)-3b,4,4a,5-tetrahydro-1H-cyclopropa[3,4]cyclopenta[1,2-c]pyrazol-1-yl)acetamido)-2-(3,5-difluorophenyl)ethyl)-6-(3-methyl-3-(methylsulfonyl)but-1-yn-1-yl)pyridin-3-yl)-1-(2,2,2-trifluoroethyl)-1H-indazol-3-yl)(methylsulfonyl)carbamoyl)pyrrolidin-2-yl)methyl)(((phosphonooxy)methoxy)carbonyl)amino)propanoic acid] | 1 μM | 100 μM | 861 (≈ 652 µM) | 1710 (≈ 1290 µM) | 
6 | CC(C)(C#Cc1ccc(-c2ccc(Cl)c3c(N(C(=O)[C@@H]4C[C@H](C(=O)O)C[C@H](C(=O)O)C4)S(C)(=O)=O)nn(CC(F)(F)F)c23)c([C@H](Cc2cc(F)cc(F)c2)NC(=O)Cn2nc(C(F)(F)F)c3c2C(F)(F)[C@@H]2C[C@H]32)n1)S(C)(=O)=O [Compound 15, (1R,3S,5r)-5-((4-chloro-7-(2-((S)-1-(2-((3bS,4aR)-5,5-difluoro-3-(trifluoromethyl)-3b,4,4a,5-tetrahydro-1H-cyclopropa[3,4]cyclopenta[1,2-c]pyrazol-1-yl)acetamido)-2-(3,5-difluorophenyl)ethyl)-6-(3-methyl-3-(methylsulfonyl)but-1-yn-1-yl)pyridin-3-yl)-1-(2,2,2-trifluoroethyl)-1H-indazol-3-yl)(methylsulfonyl)carbamoyl)cyclohexane-1,3-dicarboxylic acid] | 1/1 μM | 1/1 μM | 253 (≈ 217 µM) | 38 (≈ 32.6 µM) | 
7 | CC(C)(C#Cc1ccc(-c2ccc(Cl)c3c(N(C(=O)N4CC[C@@H]4CN(CC(=O)O)C(=O)OCOP(=O)(O)O)S(C)(=O)=O)nn(CC(F)(F)F)c23)c([C@H](Cc2cc(F)cc(F)c2)NC(=O)Cn2nc(C(F)(F)F)c3c2C(F)(F)[C@@H]2C[C@H]32)n1)S(C)(=O)=O [Compound 36, N—(((R)-1-((4-chloro-7-(2-((S)-1-(2-((3bS,4aR)-5,5-difluoro-3-(trifluoromethyl)-3b,4,4a,5-tetrahydro-1H-cyclopropa[3,4]cyclopenta[1,2-c]pyrazol-1-yl)acetamido)-2-(3,5-difluorophenyl)ethyl)-6-(3-methyl-3-(methylsulfonyl)but-1-yn-1-yl)pyridin-3-yl)-1-(2,2,2-trifluoroethyl)-1H-indazol-3-yl)(methylsulfonyl)carbamoyl)azetidin-2-yl)methyl)-N-(((phosphonooxy)methoxy)carbonyl)glycine] | 1 μM | 100 μM | > 7400 | > 5930 | 
8 | CC(C)(C#Cc1ccc(-c2ccc(Cl)c3c(N(C(=O)N4CCC[C@H]4COP(=O)(O)O)S(C)(=O)=O)nn(CC(F)(F)F)c23)c([C@H](Cc2cc(F)cc(F)c2)NC(=O)Cn2nc(C(F)(F)F)c3c2C(F)(F)[C@@H]2C[C@H]32)n1)S(C)(=O)=O [Compound 29, ((S)-1-((4-chloro-7-(2-((S)-1-(2-((3bS,4aR)-5,5-difluoro-3-(trifluoromethyl)-3b,4,4a,5-tetrahydro-1H-cyclopropa[3,4]cyclopenta[1,2-c]pyrazol-1-yl)acetamido)-2-(3,5-difluorophenyl)ethyl)-6-(3-methyl-3-(methylsulfonyl)but-1-yn-1-yl)pyridin-3-yl)-1-(2,2,2-trifluoroethyl)-1H-indazol-3-yl)(methylsulfonyl)carbamoyl)pyrrolidin-2-yl)methyl dihydrogen phosphate] | 1 μM | 98 μM | 802 | 536 | 
9 | CC(C)(C#Cc1ccc(-c2ccc(Cl)c3c(N(C(=O)c4ccccc4COP(=O)(O)O)S(C)(=O)=O)nn(CC(F)(F)F)c23)c([C@H](Cc2cc(F)cc(F)c2)NC(=O)Cn2nc(C(F)(F)F)c3c2C(F)(F)[C@@H]2C[C@H]32)n1)S(C)(=O)=O [Compound 22, 2-((4-chloro-7-(2-((S)-1-(2-((3bS,4aR)-5,5-difluoro-3-(trifluoromethyl)-3b,4,4a,5-tetrahydro-1H-cyclopropa[3,4]cyclopenta[1,2-c]pyrazol-1-yl)acetamido)-2-(3,5-difluorophenyl)ethyl)-6-(3-methyl-3-(methylsulfonyl)but-1-yn-1-yl)pyridin-3-yl)-1-(2,2,2-trifluoroethyl)-1H-indazol-3-yl)(methylsulfonyl)carbamoyl)benzyl dihydrogen phosphate] | 1 μM | 100 μM | 618 | 534 | 
10 | CC(C)(C#Cc1ccc(-c2ccc(Cl)c3c(N(C(=O)[C@H]4C[C@H](NC(=N)N)C4)S(C)(=O)=O)nn(CC(F)(F)F)c23)c([C@H](Cc2cc(F)cc(F)c2)NC(=O)Cn2nc(C(F)(F)F)c3c2C(F)(F)[C@@H]2C[C@H]32)n1)S(C)(=O)=O [Compound 9, trans-N-(4-chloro-7-(2-((S)-1-(2-((3bS,4aR)-5,5-difluoro-3-(trifluoromethyl)-3b,4,4a,5-tetrahydro-1H-cyclopropa[3,4]cyclopenta[1,2-c]pyrazol-1-yl)acetamido)-2-(3,5-difluorophenyl)ethyl)-6-(3-methyl-3-(methylsulfonyl)but-1-yn-1-yl)pyridin-3-yl)-1-(2,2,2-trifluoroethyl)-1H-indazol-3-yl)-3-guanidino-N-(methylsulfonyl)cyclobutane-1-carboxamide] | 9 μM | 2 μM | 17 (≈ 15.4 µM) | 83 (≈ 74.9 µM) | 
